20 compounds from ChEMBL document CHEMBL1127284, “The synthesis of 2,3-dihydro-4(1H)-quinazolinone angiotensin II receptor antagonists” (Bioorg Med Chem Lett, 1994) can be followed below.

One experiment deals with T1, Angiotensin II receptor (Rattus norvegicus, UniProt P29089+P25095+P35351).
T1 sequence (P29089 whole entry): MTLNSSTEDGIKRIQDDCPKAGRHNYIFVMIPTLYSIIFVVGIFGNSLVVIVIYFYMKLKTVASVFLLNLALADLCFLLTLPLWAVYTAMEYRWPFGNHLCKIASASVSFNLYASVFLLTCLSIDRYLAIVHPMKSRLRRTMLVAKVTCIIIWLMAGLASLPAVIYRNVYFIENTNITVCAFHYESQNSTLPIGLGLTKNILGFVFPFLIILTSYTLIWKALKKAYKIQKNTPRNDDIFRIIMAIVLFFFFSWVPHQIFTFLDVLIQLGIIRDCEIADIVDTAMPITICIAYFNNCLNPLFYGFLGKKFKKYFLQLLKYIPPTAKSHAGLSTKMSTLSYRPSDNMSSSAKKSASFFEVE
T1 sequence (P25095 whole entry): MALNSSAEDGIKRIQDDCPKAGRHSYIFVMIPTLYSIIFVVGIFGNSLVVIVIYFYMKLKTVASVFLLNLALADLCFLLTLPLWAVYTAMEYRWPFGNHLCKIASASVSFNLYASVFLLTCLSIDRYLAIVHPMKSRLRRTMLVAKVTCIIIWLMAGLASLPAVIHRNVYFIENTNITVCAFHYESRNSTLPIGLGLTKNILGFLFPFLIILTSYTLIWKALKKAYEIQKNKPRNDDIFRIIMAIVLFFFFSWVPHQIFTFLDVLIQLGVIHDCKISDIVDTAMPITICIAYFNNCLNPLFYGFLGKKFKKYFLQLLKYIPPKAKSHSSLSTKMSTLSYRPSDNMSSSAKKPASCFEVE
T1 sequence (P35351 whole entry): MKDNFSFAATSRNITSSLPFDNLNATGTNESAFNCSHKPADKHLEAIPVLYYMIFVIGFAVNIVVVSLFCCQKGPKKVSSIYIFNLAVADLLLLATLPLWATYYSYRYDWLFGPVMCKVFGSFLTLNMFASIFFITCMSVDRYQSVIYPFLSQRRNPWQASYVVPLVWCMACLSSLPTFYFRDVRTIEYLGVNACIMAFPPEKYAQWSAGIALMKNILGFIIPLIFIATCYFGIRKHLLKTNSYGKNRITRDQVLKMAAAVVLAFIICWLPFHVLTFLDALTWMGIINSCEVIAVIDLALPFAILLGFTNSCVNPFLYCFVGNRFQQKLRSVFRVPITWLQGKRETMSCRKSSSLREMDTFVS
As to the kind of experiment: Concentration required for 50% inhibition of binding against Angiotensin II receptor in the rat adrenal cortex tissue. Format: tissue-based.
Conditions: not given
`CCCCC1Nc2ccccc2C(=O)N1Cc1ccc(-c2ccccc2-c2nn[nH]n2)cc1` (stereo not given): the IC50 came to 14 µM.

Consider `CC1Nc2ccccc2C(=O)N1Cc1ccc(-c2ccccc2-c2nn[nH]n2)cc1` (stereo not given), for which the IC50 is 90 µM.

Compound `CCCCC1N(Cc2ccc(-c3ccccc3-c3nn[nH]n3)cc2)C(=O)c2cc(C(C)C)ccc2N1C` (stereo not given) came in with a 50% inhibitory concentration (IC50) of 0.65 µM.

On to `CCCCC1Nc2ccc(C(C)(C)OC)cc2C(=O)N1Cc1ccc(-c2ccccc2-c2nn[nH]n2)cc1` (stereo not given), for which the IC50 came to 2.7 µM.

Consider `CCCCC1Nc2ccc(C(C)C)cc2C(=O)N1Cc1ccc(-c2ccccc2-c2nn[nH]n2)cc1` (stereo not given), for which the half-maximal inhibitory concentration (IC50) was found to be 0.09 µM.

Consider `CCCCC1Nc2ccc(C(=O)OC)cc2C(=O)N1Cc1ccc(-c2ccccc2-c2nn[nH]n2)cc1` (stereo not given), for which the IC50 was found to be 4.1 µM.

The compound `CCCCC1N(Cc2ccc(-c3ccccc3-c3nn[nH]n3)cc2)C(=O)c2cc(C(C)(C)OC)ccc2N1C` (stereo not given) displayed an IC50 of 2 µM.

Compound `CCCCC1N(Cc2ccc(-c3ccccc3-c3nn[nH]n3)cc2)C(=O)c2ccccc2N1C` (stereo not given) came in with a half-maximal inhibitory concentration (IC50) of 1.1 µM.

`CCCCC1Nc2ccc(Cc3ccccc3)cc2C(=O)N1Cc1ccc(-c2ccccc2-c2nn[nH]n2)cc1` (stereo not given) yielded an IC50 of 3.7 µM.

Compound `CCCC1Nc2ccccc2C(=O)N1Cc1ccc(-c2ccccc2-c2nn[nH]n2)cc1` (stereo not given) returned a half-maximal inhibitory concentration (IC50) of 0.54 µM.

`CCCCC1Nc2ccc(CC)cc2C(=O)N1Cc1ccc(-c2ccccc2-c2nn[nH]n2)cc1` (stereo not given) yielded an IC50 of 0.37 µM.

For the compound `CCCC1N(Cc2ccc(-c3ccccc3-c3nn[nH]n3)cc2)C(=O)c2ccccc2N1Cc1ccccc1` (stereo not given), the half-maximal inhibitory concentration (IC50) was 100 µM.

Take `CCC1Nc2ccc(C(C)C)cc2C(=O)N1Cc1ccc(-c2ccccc2-c2nn[nH]n2)cc1` (stereo not given): the IC50 is 45 µM.

The compound `CCC1Nc2ccc(C)cc2C(=O)N1Cc1ccc(-c2ccccc2-c2nn[nH]n2)cc1` (stereo not given) gave an IC50 of 20 µM.

`CCCCC1(CCCC)Nc2ccccc2C(=O)N1Cc1ccc(-c2ccccc2-c2nn[nH]n2)cc1` registered an IC50 of 13 µM.

Consider `CCCC1N(Cc2ccc(-c3ccccc3-c3nn[nH]n3)cc2)C(=O)c2ccccc2N1C` (stereo not given), for which the half-maximal inhibitory concentration (IC50) came to 0.05 µM.

The compound `CCC1Nc2ccccc2C(=O)N1Cc1ccc(-c2ccccc2-c2nn[nH]n2)cc1` (stereo not given) came in with a 50% inhibitory concentration (IC50) of 27 µM.

In turn, `CCCC1Nc2ccc(C(C)C)cc2C(=O)N1Cc1ccc(-c2ccccc2-c2nn[nH]n2)cc1` (stereo not given) returned an IC50 of 12 µM.

`CCCC1N(Cc2ccc(-c3ccccc3-c3nn[nH]n3)cc2)C(=O)c2ccccc2N1CC` (stereo not given) gave an IC50 of 7.5 µM.

The same experiment, now with this note: read-out: IC50.
On to `CCCCc1nc2ccc(C(C)(C)OC)cc2c(=O)n1Cc1ccc(-c2ccccc2-c2nn[nH]n2)cc1` [CL-329167], for which the 50% inhibitory concentration (IC50) stood at 0.006 µM.
